Reference: patent publication US12077503B2, “Substituted cyclic amides and their use as herbicides” (FMC CORPORATION, priority 2015, dated 2024)

How the values were obtained:
Format in all cases: in vivo
[1] = test system: Galium (catchweed bedstraw, Galium aparine); experiment: Test A postemergence
Description: (§1) Seeds of plant species selected from barnyardgrass (Echinochloa crus-galli), Kochia (Kochia scoparia), ragweed (common ragweed, Ambrosia elatior), ryegrass, Italian (Italian ryegrass, Lolium multiflorum), crabgrass, large (Digitaria sanguinalis), giant foxtail (Setaria faberii), green foxtail (Setaria viridis), morningglory (Ipomoea spp.), pigweed (Amaranthus retroflexus), velvetleaf (Abutilon theophrasti), wheat (Triticum aestivum), and corn (Zea mays) were planted into a blend of loam soil and sand and treated preemergence with a directed soil spray using test chemicals formulated in anon-phytotoxic solvent mixture which included a surfactant.
(§2) At the same time, plants selected from these crop and weed species and also blackgrass (Alopecurus myosuroides), and Galium (catchweed bedstraw, Galium aparine) were planted in pots containing the same blend of loam soil and sand and treated with postemergence applications of test chemicals formulated in the same manner. Plants ranged in height from 2 to 10 cm and were in the one- to two-leaf stage for the postemergence treatment. Treated plants and untreated controls were maintained in a greenhouse for approximately 10 d, after which time all treated plants were compared to untreated controls and visually evaluated for injury. Plant response ratings, summarized in Table A, are based on a 0 to 100 scale where 0 is no effect and 100 is complete control. A dash (-) response means no test result.

[2] = test system: ragweed (common ragweed, Ambrosia elatior); experiment: Test A postemergence
Description: as §1, §2

[3] = test system: pigweed (Amaranthus retroflexus); experiment: Test A postemergence
Description: as §1, §2

[4] = test system: giant foxtail (Setaria faberii); experiment: Test A postemergence
Description: as §1, §2

[5] = test system: barnyardgrass (Echinochloa crus-galli); experiment: Test A postemergence
Description: as §1, §2

Kochia (Kochia scoparia) [6] = experiment: Test A postemergence
Description: as §1, §2

[7] = test system: wheat (Triticum aestivum); experiment: Test A postemergence
Description: as §1, §2

[8] = test system: ryegrass, Italian (Italian ryegrass, Lolium multiflorum); experiment: Test A postemergence
Description: as §1, §2

corn (Zea mays) = experiment: Test A postemergence
Description: as §1, §2

[9] = test system: blackgrass (Alopecurus myosuroides); experiment: Test A postemergence
Description: as §1, §2

[10] = test system: barnyardgrass (Echinochloa crus-galli); experiment: Test B flooded paddy test; details: Flood, 250 g ai/ha; 0 to 100 scale where 0 is no effect and 100 is complete control; 13 to 15 d
Outline: (§3)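 Rating scale 0–100 (visual, vs untreated controls) after a 13–15 d greenhouse period; application to the flood layer, 3 cm above soil and maintained; plants at 2-leaf stage when treated.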

[11] = test system: ducksalad (Heteranthera limosa); experiment: Test B flooded paddy test; details: Flood, 250 g ai/ha; 0 to 100 scale where 0 is no effect and 100 is complete control; 13 to 15 d
Outline: as §3

[12] = test system: sedge, umbrella (small-flower umbrella sedge, Cyperus difformis); experiment: Test B flooded paddy test; details: Flood, 250 g ai/ha; 0 to 100 scale where 0 is no effect and 100 is complete control; 13 to 15 d
Outline: as §3

rice (Oryra sativa) = experiment: Test B flooded paddy test; details: Flood, 250 g ai/ha; 0 to 100 scale where 0 is no effect and 100 is complete control; 13 to 15 d
Outline: as §3

[13] = test system: ragweed (common ragweed, Ambrosia elatior); experiment: Test A preemergence; details: Preemergence; for Plant response rating, Ragweed: 125 g ai/ha, visual injury after approximately 10 d, 0 to 100 scale where 0 is no effect and 100 is complete control; for Ragweed plant response rating (0 to 100 scale, 0 is no effect, 100 is complete control): 500 g ai/ha, visual injury approx. 10 d
Description: as §1, §2

[14] = test system: pigweed (Amaranthus retroflexus); experiment: Test A preemergence; details: Preemergence; for Plant response rating, Pigweed: 125 g ai/ha, visual injury after approximately 10 d, 0 to 100 scale where 0 is no effect and 100 is complete control; for Pigweed plant response rating (0 to 100 scale, 0 is no effect, 100 is complete control): 500 g ai/ha, visual injury approx. 10 d
Description: as §1, §2

[15] = test system: giant foxtail (Setaria faberii); experiment: Test A preemergence; details: Preemergence; for Plant response rating, Foxtail, Giant: 125 g ai/ha, visual injury after approximately 10 d, 0 to 100 scale where 0 is no effect and 100 is complete control; for Foxtail, Giant plant response rating (0 to 100 scale, 0 is no effect, 100 is complete control): 500 g ai/ha, visual injury approx. 10 d
Description: as §1, §2

[16] = test system: barnyardgrass (Echinochloa crus-galli); experiment: Test A preemergence; details: Preemergence; for Plant response rating, Barnyardgrass: 125 g ai/ha, visual injury after approximately 10 d, 0 to 100 scale where 0 is no effect and 100 is complete control; for Barnyardgrass plant response rating (0 to 100 scale, 0 is no effect, 100 is complete control): 500 g ai/ha, visual injury approx. 10 d
Description: as §1, §2

Kochia (Kochia scoparia) [17] = experiment: Test A preemergence; details: Preemergence; for Plant response rating, Kochia: 125 g ai/ha, visual injury after approximately 10 d, 0 to 100 scale where 0 is no effect and 100 is complete control; for Kochia plant response rating (0 to 100 scale, 0 is no effect, 100 is complete control): 500 g ai/ha, visual injury approx. 10 d
Description: as §1, §2

[18] = test system: ryegrass, Italian (Italian ryegrass, Lolium multiflorum); experiment: Test A preemergence; details: Preemergence; for Plant response rating, Ryegrass, Italian: 125 g ai/ha, visual injury after approximately 10 d, 0 to 100 scale where 0 is no effect and 100 is complete control; for Ryegrass, Italian plant response rating (0 to 100 scale, 0 is no effect, 100 is complete control): 500 g ai/ha, visual injury approx. 10 d
Description: as §1, §2

[19] = 125 g ai/ha, postemergence, visual rating after approx. 10 d, 0 to 100 scale (0 no effect, 100 complete control)
[20] = Postemergence, 500 g ai/ha, 0 to 100 scale where 0 is no effect and 100 is complete control
[21] = 125 g ai/ha, postemergence, visual injury rating on 0 to 100 scale (0 no effect, 100 complete control), approx. 10 d

Compound	Plant response rating, Galium [1, 19]	Plant response rating, Galium [1, 20]	Plant response rating, Ragweed [2, 19]	Plant response rating, Ragweed [2, 20]	Plant response rating, Pigweed [3, 19]	Plant response rating, Pigweed [3, 20]	Plant response rating, Foxtail, Giant [4, 19]	Plant response rating, Foxtail, Giant [4, 20]	Plant response rating, Barnyardgrass [5, 20]	Plant response rating, Kochia (Kochia (Kochia scoparia) [6]; [19])	Plant response rating, Kochia (Kochia (Kochia scoparia) [6]; [20])	Plant response rating, Wheat [7, 19]	Plant response rating, Wheat [7, 20]	Plant response rating, Ryegrass, Italian [8, 19]	Plant response rating, Ryegrass, Italian [8, 20]	Plant response rating, Corn (corn (Zea mays); [19])	Plant response rating, Corn (corn (Zea mays); [20])	Plant response rating, Blackgrass [9, 20]	Plant response rating, Barnyardgrass [10]	Plant response rating, Ducksalad [11]	other results
COc1c(F)ccc(NC(=O)C2C(=O)NCC2c2cc(F)cc(F)c2)c1F (racemic) [Compound 541]	30	50	0	30	0	0	80	90	90	0	30	20	80	20	40	0	60	60	35	75	Barnyardgrass plant response rating [5, 21]: 90; Blackgrass plant response rating [9, 21]: 30; Plant response rating, Sedge, Umbrella [12]: 0; Plant response rating, Rice (rice (Oryra sativa)): 0; Plant response rating, Ragweed [13]: 0; Ragweed plant response rating (0 to 100 scale, 0 is no effect, 100 is complete control) [13]: 0; Plant response rating, Pigweed [14]: 0; Pigweed plant response rating (0 to 100 scale, 0 is no effect, 100 is complete control) [14]: 0; Plant response rating, Foxtail, Giant [15]: 90; Foxtail, Giant plant response rating (0 to 100 scale, 0 is no effect, 100 is complete control) [15]: 90; Plant response rating, Barnyardgrass [16]: 90; Barnyardgrass plant response rating (0 to 100 scale, 0 is no effect, 100 is complete control) [16]: 90; Plant response rating, Kochia (Kochia (Kochia scoparia) [17]): 0; Kochia plant response rating (0 to 100 scale, 0 is no effect, 100 is complete control) (Kochia (Kochia scoparia) [17]): 20; Plant response rating, Ryegrass, Italian [18]: 0; Ryegrass, Italian plant response rating (0 to 100 scale, 0 is no effect, 100 is complete control) [18]: 20
O=C1NCC(c2cc(F)ccc2F)C1C(=O)Nc1ccc(F)cc1F (racemic) [Compound 545]	0	0	0	0	0	0	0	70	80	0	0	0	0	0	0	0	0	0	0	0	Plant response rating, Barnyardgrass [5, 19]: 0; Plant response rating, Blackgrass [9, 19]: 0; Plant response rating, Sedge, Umbrella [12]: 0; Plant response rating, Rice (rice (Oryra sativa)): 0; Plant response rating, Ragweed [13]: 0; Ragweed plant response rating (0 to 100 scale, 0 is no effect, 100 is complete control) [13]: 0; Plant response rating, Pigweed [14]: 0; Pigweed plant response rating (0 to 100 scale, 0 is no effect, 100 is complete control) [14]: 0; Plant response rating, Foxtail, Giant [15]: 80; Foxtail, Giant plant response rating (0 to 100 scale, 0 is no effect, 100 is complete control) [15]: 90; Plant response rating, Barnyardgrass [16]: 20; Barnyardgrass plant response rating (0 to 100 scale, 0 is no effect, 100 is complete control) [16]: 70; Plant response rating, Kochia (Kochia (Kochia scoparia) [17]): 0; Kochia plant response rating (0 to 100 scale, 0 is no effect, 100 is complete control) (Kochia (Kochia scoparia) [17]): 0; Plant response rating, Ryegrass, Italian [18]: 0; Ryegrass, Italian plant response rating (0 to 100 scale, 0 is no effect, 100 is complete control) [18]: 0
